Among the data in BindingDB's records for doi:10.1039/d3md00655g (Henan University, 2024) are IC50 values, retold here.

In general, IC50 refers to the concentration at which inhibition is half-maximal. A low value points to greater potency in that assay.

Test [1] has as its target Programmed cell death 1 ligand 1 (Homo sapiens) (UniProt Q9NZQ7). As to the kind of experiment: Inhibition of PD-1/PD-L1 (unknown origin) protein-protein interaction.
Test [2] shares this target. As to the kind of experiment: Inhibition of PD-1/PD-L1 (unknown origin) interaction incubated for 15 mins by HTRF assay.

Chain of Programmed cell death 1 ligand 1 (Homo sapiens) (Q9NZQ7 whole entry, looked up): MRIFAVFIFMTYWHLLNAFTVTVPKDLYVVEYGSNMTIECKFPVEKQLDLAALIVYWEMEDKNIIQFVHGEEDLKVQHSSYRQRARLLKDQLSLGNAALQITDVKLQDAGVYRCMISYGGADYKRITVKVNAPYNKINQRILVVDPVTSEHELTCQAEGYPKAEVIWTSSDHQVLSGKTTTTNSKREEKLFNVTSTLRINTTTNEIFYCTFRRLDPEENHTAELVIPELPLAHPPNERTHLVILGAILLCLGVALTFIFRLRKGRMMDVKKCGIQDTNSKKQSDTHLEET

In the case of `COc1nc(-c2cccc(-c3ccccc3F)c2C)ccc1CNCCC(N)=O`, the IC50 in test [1] was 0.00093 µM.

For the compound `Cc1c(COc2ccc(CN3CCNCC3)c(OCc3cn(-c4cccc(C#N)c4)nn3)c2)cccc1-c1ccccc1`, half-maximal inhibition in test [2] (IC50) was put at 8.52 µM.
